In patent US9938269B2, “Inhibitor compounds of phosphodiesterase type 10A” (ABBVIE INC., priority 2011, dated 2018) one finds microsomal CLint and IC50 data, which are given here for eleven compounds.

Counter-ions that a name gives are not always drawn. Where only a bound is given, the exact number is not on record here.

Broadly, the microsomal CLint is a measure of how fast metabolising enzymes remove a compound, apart from limits set by blood flow. A word on the IC50: it is the concentration that inhibits the measured activity by half.

Series [1] in a line: Determination of the microsomal half-life, human liver microsomes. The following applies: human, liver microsomes, pH 7.4. A general note: Liver microsomes are a subcellular fraction often used to study metabolism.
A short description of series [2]: Determination of the microsomal half-life, rat liver microsomes. The following applies: rat, liver microsomes, pH 7.4.
For the next series, the target named is T1, PDE10A (human) (Homo sapiens, UniProt Q9Y233).
T1 construct: purchased BPS Bioscience
T1 sequence (Q9Y233 whole entry): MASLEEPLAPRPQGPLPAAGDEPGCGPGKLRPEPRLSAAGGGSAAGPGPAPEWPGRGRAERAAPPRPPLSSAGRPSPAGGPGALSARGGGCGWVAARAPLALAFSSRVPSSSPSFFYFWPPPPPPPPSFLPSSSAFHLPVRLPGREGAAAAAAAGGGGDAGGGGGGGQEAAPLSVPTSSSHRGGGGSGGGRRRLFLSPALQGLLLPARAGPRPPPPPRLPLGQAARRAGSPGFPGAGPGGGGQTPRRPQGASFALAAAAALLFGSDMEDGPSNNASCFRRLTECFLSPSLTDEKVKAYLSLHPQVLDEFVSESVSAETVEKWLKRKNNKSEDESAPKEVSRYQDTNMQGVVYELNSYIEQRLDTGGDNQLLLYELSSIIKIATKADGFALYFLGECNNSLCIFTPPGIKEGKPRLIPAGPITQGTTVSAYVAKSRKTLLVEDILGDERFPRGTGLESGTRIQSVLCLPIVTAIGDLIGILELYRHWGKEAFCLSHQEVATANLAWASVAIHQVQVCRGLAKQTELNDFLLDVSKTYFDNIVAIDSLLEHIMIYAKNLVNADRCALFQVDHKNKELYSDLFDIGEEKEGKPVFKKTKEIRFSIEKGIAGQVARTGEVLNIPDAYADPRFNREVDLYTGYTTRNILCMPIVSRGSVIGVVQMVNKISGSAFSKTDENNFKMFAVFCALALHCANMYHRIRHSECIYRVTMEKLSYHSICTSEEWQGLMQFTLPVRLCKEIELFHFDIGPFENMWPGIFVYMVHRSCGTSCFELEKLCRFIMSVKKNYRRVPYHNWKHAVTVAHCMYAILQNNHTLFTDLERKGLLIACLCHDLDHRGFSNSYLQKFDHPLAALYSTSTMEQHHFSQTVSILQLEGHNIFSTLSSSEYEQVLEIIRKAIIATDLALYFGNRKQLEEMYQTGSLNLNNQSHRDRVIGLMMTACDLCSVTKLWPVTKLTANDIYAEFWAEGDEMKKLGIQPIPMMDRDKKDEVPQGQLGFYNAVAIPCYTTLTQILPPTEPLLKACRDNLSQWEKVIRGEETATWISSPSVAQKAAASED
In words: Measurement of PDE activity (HTRF cAMP kit), human PDE10A. Type of series: biochemical. Particulars: PDE enzymatic reaction, substrate 20 nM for PDE10, 60 minutes at 29 C. Put shortly: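 Recombinant human PDE10A (10–250 pM range across PDEs) with 20 nM cAMP substrate in 20 mM Tris-HCl pH 7.5, 10 mM MgCl2, 0.1% BSA, compound pre-mixed with enzyme. Ran 60 min at 29 °C. Remaining cAMP read by HTRF, converted to % of uninhibited activity, and IC50 fitted.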
For orientation: Time-resolved FRET reads energy transfer from a long-lived donor to a nearby acceptor.

With `COc1ccc(-c2cn[nH]c2)c2c1CN(CCc1ccc3ccccc3n1)C2=O` [Example 180, 4-Methoxy-7-(1H-pyrazol-4-yl)-2-(2-quinolin-2-yl-ethyl)-2,3-dihydro-isoindol-1-one], the figures for the microsomal CLint at 0.5 μM in series [1] and in series [2] were 100 to 220 µL/min/mg and greater than 220 µL/min/mg, respectively. Also, on PDE10A (human), the IC50 was less than 100 nM.

On to `COc1ccc(-c2ccncc2)c2c1C(=O)N(CCc1nc3ccccc3s1)C2` [compound 396, 2-[2-(1,3-Benzothiazol-2-yl)ethyl]-7-methoxy-4-(4-pyridyl)isoindolin-1-one], for which the microsomal CLint at 0.5 μM in series [1] was less than 100 µL/min/mg; in series [2], 100 to 220 µL/min/mg. This compound registered an IC50 on PDE10A (human) of less than 100 nM.

`O=C1c2c(-c3ccoc3)ccnc2CN1CCc1cn2cc(F)ccc2n1` [compound 526, 6-[2-(6-Fluoroimidazo[1,2-a]pyridin-2-yl)ethyl]-4-(3-furyl)-7H-pyrrolo[3,4-b]pyridin-5-one]: the microsomal CLint at 0.5 μM in series [1] is less than 100 µL/min/mg; in series [2] it was 100 to 220 µL/min/mg. Also, the IC50 against PDE10A (human) is less than 100 nM.

Take `O=C1c2c(cccc2N2CC[S+]([O-])CC2)CN1CCc1ccc2ccccc2n1` [Example 135, 7-(1-oxo-thiomorpholin-4-yl)-2-(2-quinolin-2-yl-ethyl)-2,3-dihydro-isoindol-1-one]: the microsomal CLint at 0.5 μM in series [1] and in series [2] was less than 100 µL/min/mg each time. In addition, the IC50 against PDE10A (human) was less than 100 nM.

As to `O=C1c2c(N3CCNCC3)ccnc2CN1CCc1ccc2ccccc2n1` [Example 163, 4-piperazin-1-yl-6-(2-quinolin-2-yl-ethyl)-6,7-dihydro-pyrrolo[3,4-b]pyridin-5-one], the microsomal CLint at 0.5 μM in series [1] and in series [2] was less than 100 µL/min/mg each time. Moreover, the IC50 on PDE10A (human) is less than 100 nM.

On to `CN(C)Cc1ccc(-c2cccc3c2C(=O)N(CCc2ccc4ccccc4n2)C3)cc1` [Example 188, 7-(4-Dimethylaminomethyl-phenyl)-2-(2-quinolin-2-yl-ethyl)-2,3-dihydro-isoindol-1-one (dihydrochloride)], for which the microsomal CLint at 0.5 μM in series [1] and in series [2] was 100 to 220 µL/min/mg throughout. The compound further yielded a half-inhibitory concentration (IC50) against PDE10A (human) of 200 to 500 nM.

With `Cc1ccc2ccc(CCN3Cc4nccc(-c5ccncc5)c4C3=O)nc2c1` [compound 394, 6-[2-(7-Methyl-2-quinolyl)ethyl]-4-(4-pyridyl)-7H-pyrrolo[3,4-b]pyridin-5-one trifluoroacetate], the microsomal CLint at 0.5 μM in series [1] was less than 100 µL/min/mg; in series [2] it was greater than 220 µL/min/mg. In addition, on PDE10A (human), the IC50 was less than 100 nM.

As for `COc1ccc(-c2ccnc3c2CN(CCc2cn4ccccc4n2)C3=O)cc1` [compound 461, 6-(2-Imidazo[1,2-a]pyridin-2-yl-ethyl)-4-(4-methoxy-phenyl)-5,6-dihydro-pyrrolo[3,4-b]pyridin-7-one trifluoroacetate], the microsomal CLint at 0.5 μM was less than 100 µL/min/mg in series [1] and greater than 220 µL/min/mg in series [2]. This compound came in with an IC50 at PDE10A (human) of 100 to 200 nM.

Consider `O=C1c2c(cccc2-c2cncnc2)CN1CCc1ccc2ccccc2n1` [Example 58, 7-Pyrimidin-5-yl-2-(2-quinolin-2-yl-ethyl)-2,3-dihydro-isoindol-1-one], for which the microsomal CLint at 0.5 μM in series [1] is greater than 220 µL/min/mg; in series [2], less than 100 µL/min/mg. Besides, at PDE10A (human), the IC50 was less than 100 nM.

Take `O=C1c2c(cccc2N2CCOCC2)CN1CCc1nc2ccccc2n1C(F)F` [compound 449, 2-[2-(1-Difluoromethyl-1H-benzoimidazol-2-yl)-ethyl]-7-morpholin-4-yl-2,3-dihydro-isoindol-1-one trifluoroacetate]: the microsomal CLint at 0.5 μM in series [1] and in series [2] was 100 to 220 µL/min/mg in each case. For the same compound, at PDE10A (human), the IC50 is 200 to 500 nM.

With `O=C1c2c(-c3ccc(F)cc3)ccc(F)c2CN1CCc1cn2ccccc2n1` [Example 379, 4-Fluoro-7-(4-fluoro-phenyl)-2-(2-imidazol[1,2-a]pyridin-2-yl-ethyl)-2,3-dihydro-isoindol-1-one], the results for the microsomal CLint at 0.5 μM in series [1] and in series [2] were 100 to 220 µL/min/mg and greater than 220 µL/min/mg, respectively. The IC50 on PDE10A (human) lay in the range of 100 to 200 nM.
